Test results published in patent US12364706B2, “Modified aminoglycoside compounds and uses thereof in disabling bacterial ribosome” (Technion Research & Development Foundation Limited, priority 2018, dated 2025).

Key:
[1] = system: Gram-positive pathogenic MRSA strains; experiment: Antibacterial activity (MIC, double-microdilution) against MRSA strains; assay type: cell-based; details: relative to NeoB
Experimental: (§1) Comparative antibacterial activities were determined by measuring the MIC values by using the double-microdilution method according to the National Committee for Clinical Laboratory Standards (NCCLS).
(§2) All the experiments were performed in triplicate, and analogous results were obtained in three different experiments.
The resistant strains included MRSA, a Gram-positive bacterium, the treatment of which represents a great challenge in the clinic; MRSA 252, which is known for its high resistance to aminoglycosides [M. T. G. Holden, E. J. Feil, J. A. Lindsay, S. J. Peacock, N. P. J. Day, M. C. Enright, T. J. Foster, C. E. Moore, L. Hurst, R. Atkin, et al., Proc. Natl. Acad. Sci. USA 2004, 101, 9786-9791]; and MRSA CI 15877, which is resistant to natural aminoglycosides [G. Kaneti, H. Sarig, I. Marjieh, Z. Fadia, A. Mor, FASEB J. 2013, 27, 4834-4843].

[2] = system: WT and aminoglycoside-resistant strains, including Gram-negative and Gram-positive bacteria; experiment: Antibacterial activity (MIC) against WT and aminoglycoside-resistant strains; assay type: cell-based
Experimental: as §1, §2
The minimal inhibitory concentration (MIC) values of the newly designed exemplary Compounds 1-10 were determined against wild-type (WT) Gram-negative and Gram-positive bacteria.
The bacterial strains that were included in these tests were as follows:
Two wild-type (WT) E. coli strains (R477-100 and 25922) as representatives of Gram-negative bacteria with unknown resistance to aminoglycosides [V. Pokrovskaya, V. Belakhov, M. Hainrichson, S. Yaron, T. Baasov, J. Med. Chem. 2009, 52, 2243-2254] and two WT Staphylococcus epidermidis and Bacillus subtilis strains as representatives of Gram-positive bacteria (the clinically used aminoglycosides have significant antibacterial activity against these strains) [J. Kondo, M. Hainrichson, I. Nudelman, D. Shallom-Shezifi, C. M. C. M. Barbieri, D. S. D. S. Pilch, E. Westhof, T. Baasov, ChemBioChem 2007, 8, 1700-1709]. […]

[3] = system: E. coli ribosomes; experiment: rRNA cleavage experiments with full-size E. coli ribosomes (gel electrophoresis); assay type: biochemical
[4] = system: E. coli S30 extract for circular DNA with the pBESTluc plasmid; experiment: Prokaryotic in vitro translation inhibition, coupled transcription/translation assay; assay type: biochemical; details: for IC50: prokaryotic system, 37° C., 60 minutes, read-out: IC50 values, protein translation inhibition (half-maximum inhibition levels); for inhibitory potency of protein translation compared with NeoB: relative to NeoB
Experimental: Prokaryotic in vitro translation inhibition by the different standard and synthetic aminoglycosides was quantified in coupled transcription/translation assays by use of E. coli S30 extract for circular DNA with the pBESTluc plasmid (Promega), according to the manufacturer's protocol.
Translation reactions ([…]) containing variable concentrations of the tested aminoglycoside were incubated at 37° C. for 60 minutes, cooled on ice for 5 minutes, and diluted with a dilution reagent [Tris-phosphate buffer (25 mm, pH 7.8), dithiothreitol (DTT, 2 mm), 1,2-diaminocyclohexanetetraacetate (2 mm), glycerol (10%), triton X100 (1%), and bovine serum albumin (BSA, 1 mg/mL] into 96-well plates.
The luminescence was measured immediately after the addition of Luciferase Assay Reagent (Promega) ([…]), and light emission was recorded with a Victor3 Plate Reader (PerkinElmer).
The concentration of half-maximal inhibition (IC^50) was obtained from fitting concentration-response curves to the data of at least three independent experiments by using Grafit 5 software.

[5] = system: Geobacillus T1 harboring the resistance to kanamycin; experiment: Antibacterial activity against kanamycin-resistant Geobacillus T1; assay type: cell-based
Experimental: as §1, §2

[6] = system: adenylyl(3′-5′)-adenosine (ApA); details: relative to 1,3-propanediamine; cited from earlier work

4′-O-(2-aminoethylamino)ethyl-neomycin [Compound 2]
MIC values, times lower than that of NeoB [1]: 64 times

4′-O-(2-aminoethylamino)ethyl-paromamine [Compound 1]
antibacterial activity [2]: substantially lower than that of the other compounds tested

CNCCNCCO[C@H]1[C@H](O)[C@@H](N)[C@@H](O[C@H]2[C@H](O[C@@H]3O[C@H](CO)[C@@H](O[C@H]4O[C@@H](CN)[C@@H](O)[C@H](O)[C@H]4N)[C@H]3O)[C@@H](O)[C@H](N)C[C@@H]2N)O[C@@H]1CN [Compound 3, 4′-O-(2-(methylamino)ethylamino)ethyl-neomycin]
cleavage of rRNA in full ribosomes ([3]; pH 7): did not show any signs of the cleaved product

NCCNCC(=O)N[C@H]1[C@H](O)[C@@H](N)[C@@H](O[C@H]2[C@H](O[C@@H]3O[C@H](CO)[C@@H](O[C@H]4O[C@@H](CN)[C@@H](O)[C@H](O)[C@H]4N)[C@H]3O)[C@@H](O)[C@H](N)C[C@@H]2N)O[C@@H]1CN [Compound 6, 4′-(2-(aminoethylamino)acetamido)-4′-deoxy-neomycin]
IC50 [4]: 6 nM | inhibitory potency of protein translation compared with NeoB [4]: two-fold higher than that of NeoB

NCCNCCNCC(=O)NC1C(CN)OC(OC2C(N)CC(N)C(O)C2OC2OC(CO)C(OC3OC(CN)C(O)C(O)C3N)C2O)C(N)C1O (stereo not drawn) [Compound 8, 4′-[2-(2-(2-aminoethylamino)ethylamino)acetamido]-4′-deoxy-neomycin]
MIC values, times lower than that of NeoB [1]: 64 times

NCCNCC(=O)NC[C@H]1O[C@H](O[C@H]2[C@H](O[C@@H]3O[C@H](CO)[C@@H](O[C@H]4O[C@@H](CN)[C@@H](O)[C@H](O)[C@H]4N)[C@H]3O)[C@@H](O)[C@H](N)C[C@@H]2N)[C@H](N)[C@@H](O)[C@@H]1N [Compound 9, 4′-amino-6′-(2-(aminoethylamino)acetamido)-4′-deoxy-neomycin]
IC50 [4]: 5 nM | inhibitory potency of protein translation compared with NeoB [4]: two-fold higher than that of NeoB

NCCNCCNCC(=O)NC[C@H]1O[C@H](O[C@H]2[C@H](O[C@@H]3O[C@H](CO)[C@@H](O[C@H]4O[C@@H](CN)[C@@H](O)[C@H](O)[C@H]4N)[C@H]3O)[C@@H](O)[C@H](N)C[C@@H]2N)[C@H](N)[C@@H](O)[C@@H]1N [Compound 10, 4′-amino-6′-[2-(2-(2-aminoethylamino)ethylamino)acetamido]-4′-deoxy-neomycin]
IC50 [4]: 6 nM | inhibitory potency of protein translation compared with NeoB [4]: two-fold higher than that of NeoB

NC[C@@H]1O[C@H](O[C@H]2[C@@H](O)[C@H](O[C@@H]3[C@@H](O)[C@H](N)C[C@H](N)[C@H]3O[C@H]3O[C@H](CN)[C@@H](O)[C@H](O)[C@H]3N)O[C@@H]2CO)[C@H](N)[C@@H](O)[C@@H]1O [NeoB, Neomycin B]
IC50 [4]: 10 nM | antibacterial activity [5]: almost lost its activity | cleavage of rRNA in full ribosomes ([3]; concentrations up to 400 mM, 24 hours, 37° C., pH 7.0): did not show any signs of the cleaved product | hydrolysis of ApA, faster than 1,3-propanediamine [6]: 3 fold

NCCN [ethylenediamine]
cleavage of rRNA in full ribosomes ([3]; pH 7): did not cleave the full ribosome
